Measurements reported in ChEMBL document CHEMBL3132769, “Fragment growing to retain or alter the selectivity of anchored kinase hinge-binding fragments” (Medchemcomm, 2014).

Tests used:
[1] = molecular target: MAP kinase-activated protein kinase 3 (Homo sapiens) (UniProt Q16644); assay: Inhibition of human full length MAPKAPK3 expressed in Escherichia coli cell assessed as substrate phosphorylation using fluorescence-labelled peptides as substrate at 0.06 uM after 90 mins by microfluidic peptide phosphorylation assay
MAP kinase-activated protein kinase 3 (Homo sapiens), sequence (Q16644 whole entry, looked up, the tested form may be a part): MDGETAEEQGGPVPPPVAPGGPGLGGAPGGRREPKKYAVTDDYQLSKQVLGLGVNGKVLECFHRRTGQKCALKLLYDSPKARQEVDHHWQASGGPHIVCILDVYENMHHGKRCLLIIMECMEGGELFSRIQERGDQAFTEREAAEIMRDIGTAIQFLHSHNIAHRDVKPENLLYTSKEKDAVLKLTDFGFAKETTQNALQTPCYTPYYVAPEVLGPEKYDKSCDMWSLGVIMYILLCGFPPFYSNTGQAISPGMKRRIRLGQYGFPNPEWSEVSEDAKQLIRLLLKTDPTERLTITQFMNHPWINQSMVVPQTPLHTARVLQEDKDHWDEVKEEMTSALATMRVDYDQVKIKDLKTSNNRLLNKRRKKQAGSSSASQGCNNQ

Homo sapiens = organism: Homo sapiens; assay: Inhibition of human P70S6K catalytic domain expressed in baculovirus assessed as substrate phosphorylation using fluorescence-labelled peptides as substrate at 0.06 uM after 90 mins by microfluidic peptide phosphorylation assay
[2] = molecular target: T1, Mitogen-activated protein kinase 12 (Homo sapiens) (UniProt P53778); assay: Inhibition of human full length p38 gamma expressed in Escherichia coli cell assessed as substrate phosphorylation using fluorescence-labelled peptides as substrate at 0.06 uM after 90 mins by microfluidic peptide phosphorylation assay
T1 sequence (whole entry): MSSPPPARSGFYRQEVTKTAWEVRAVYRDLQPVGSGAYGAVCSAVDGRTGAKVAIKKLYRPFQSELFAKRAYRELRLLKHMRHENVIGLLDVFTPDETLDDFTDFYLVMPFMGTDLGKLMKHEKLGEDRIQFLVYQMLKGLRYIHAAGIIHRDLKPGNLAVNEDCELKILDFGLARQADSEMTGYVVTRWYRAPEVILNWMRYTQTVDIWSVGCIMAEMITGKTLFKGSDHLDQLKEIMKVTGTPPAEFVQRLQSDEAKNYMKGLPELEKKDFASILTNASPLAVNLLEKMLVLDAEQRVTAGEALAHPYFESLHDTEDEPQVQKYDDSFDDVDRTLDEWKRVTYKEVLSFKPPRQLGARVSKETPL

[3] = molecular target: T1, Mitogen-activated protein kinase 12 (Homo sapiens); assay: Inhibition of human full length p38 gamma expressed in Escherichia coli cell assessed as substrate phosphorylation using fluorescence-labelled peptides as substrate at 0.2 uM after 90 mins by microfluidic peptide phosphorylation assay
[4] = molecular target: T2, Serine/threonine-protein kinase BRSK1 (Homo sapiens) (UniProt Q8TDC3); assay: Inhibition of human full length BRSK1 expressed in baculovirus assessed as substrate phosphorylation using fluorescence-labelled peptides as substrate at 0.1 uM after 90 mins by microfluidic peptide phosphorylation assay
T2 sequence (whole entry): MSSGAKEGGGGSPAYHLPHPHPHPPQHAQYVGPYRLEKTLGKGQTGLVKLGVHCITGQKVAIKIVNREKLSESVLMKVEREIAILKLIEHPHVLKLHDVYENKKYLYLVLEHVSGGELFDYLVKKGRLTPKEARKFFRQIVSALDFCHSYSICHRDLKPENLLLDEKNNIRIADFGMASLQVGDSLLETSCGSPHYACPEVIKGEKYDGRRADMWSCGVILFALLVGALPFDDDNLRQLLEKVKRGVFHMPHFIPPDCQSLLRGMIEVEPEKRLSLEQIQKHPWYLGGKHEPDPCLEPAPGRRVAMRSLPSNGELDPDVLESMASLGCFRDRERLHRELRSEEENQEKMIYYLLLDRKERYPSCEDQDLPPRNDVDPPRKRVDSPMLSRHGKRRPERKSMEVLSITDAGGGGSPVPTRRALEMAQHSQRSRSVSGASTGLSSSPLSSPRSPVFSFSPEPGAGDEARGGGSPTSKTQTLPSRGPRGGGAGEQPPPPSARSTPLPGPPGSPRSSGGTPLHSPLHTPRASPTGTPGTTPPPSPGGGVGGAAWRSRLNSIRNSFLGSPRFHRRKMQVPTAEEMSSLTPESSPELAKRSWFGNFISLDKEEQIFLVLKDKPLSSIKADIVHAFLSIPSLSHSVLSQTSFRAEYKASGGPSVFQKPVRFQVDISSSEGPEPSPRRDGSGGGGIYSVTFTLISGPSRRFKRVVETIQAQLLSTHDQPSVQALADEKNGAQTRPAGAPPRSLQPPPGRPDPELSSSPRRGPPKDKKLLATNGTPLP

[5] = molecular target: Fibroblast growth factor receptor 3 (Homo sapiens) (UniProt P22607); assay: Inhibition of human FGFR3 catalytic domain expressed in baculovirus assessed as substrate phosphorylation using fluorescence-labelled peptides as substrate at 70 uM after 90 mins by microfluidic peptide phosphorylation assay
Fibroblast growth factor receptor 3 (Homo sapiens), sequence (P22607 23-806 limits assumed): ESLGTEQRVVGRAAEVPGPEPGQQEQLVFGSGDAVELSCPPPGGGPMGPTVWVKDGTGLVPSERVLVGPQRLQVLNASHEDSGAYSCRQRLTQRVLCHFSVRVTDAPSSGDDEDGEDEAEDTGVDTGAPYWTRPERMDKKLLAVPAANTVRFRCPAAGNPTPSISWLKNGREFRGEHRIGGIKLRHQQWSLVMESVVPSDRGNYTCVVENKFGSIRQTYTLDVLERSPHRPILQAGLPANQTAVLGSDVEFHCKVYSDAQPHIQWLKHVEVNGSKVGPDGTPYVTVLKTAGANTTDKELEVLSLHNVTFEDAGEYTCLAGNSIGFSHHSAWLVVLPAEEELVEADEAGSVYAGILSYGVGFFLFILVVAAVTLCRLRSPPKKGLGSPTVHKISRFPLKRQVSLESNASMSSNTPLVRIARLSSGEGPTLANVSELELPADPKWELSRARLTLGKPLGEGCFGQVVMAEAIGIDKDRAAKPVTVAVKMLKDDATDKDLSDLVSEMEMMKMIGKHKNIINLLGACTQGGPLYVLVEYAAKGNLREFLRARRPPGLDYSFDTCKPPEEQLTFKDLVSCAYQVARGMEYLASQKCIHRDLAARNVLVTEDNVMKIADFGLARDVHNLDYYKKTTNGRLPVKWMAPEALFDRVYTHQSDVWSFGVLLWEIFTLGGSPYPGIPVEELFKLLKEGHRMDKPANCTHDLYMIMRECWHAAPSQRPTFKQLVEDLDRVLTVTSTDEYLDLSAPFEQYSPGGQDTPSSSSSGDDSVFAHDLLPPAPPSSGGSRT

[6] = molecular target: Protein kinase C delta type (Homo sapiens) (UniProt Q05655); assay: Inhibition of human truncated PKC delta expressed in baculovirus assessed as substrate phosphorylation using fluorescence-labelled peptides as substrate at 70 uM after 90 mins by microfluidic peptide phosphorylation assay
Protein kinase C delta type (Homo sapiens), sequence (Q05655 whole entry, looked up, the tested form may be a part): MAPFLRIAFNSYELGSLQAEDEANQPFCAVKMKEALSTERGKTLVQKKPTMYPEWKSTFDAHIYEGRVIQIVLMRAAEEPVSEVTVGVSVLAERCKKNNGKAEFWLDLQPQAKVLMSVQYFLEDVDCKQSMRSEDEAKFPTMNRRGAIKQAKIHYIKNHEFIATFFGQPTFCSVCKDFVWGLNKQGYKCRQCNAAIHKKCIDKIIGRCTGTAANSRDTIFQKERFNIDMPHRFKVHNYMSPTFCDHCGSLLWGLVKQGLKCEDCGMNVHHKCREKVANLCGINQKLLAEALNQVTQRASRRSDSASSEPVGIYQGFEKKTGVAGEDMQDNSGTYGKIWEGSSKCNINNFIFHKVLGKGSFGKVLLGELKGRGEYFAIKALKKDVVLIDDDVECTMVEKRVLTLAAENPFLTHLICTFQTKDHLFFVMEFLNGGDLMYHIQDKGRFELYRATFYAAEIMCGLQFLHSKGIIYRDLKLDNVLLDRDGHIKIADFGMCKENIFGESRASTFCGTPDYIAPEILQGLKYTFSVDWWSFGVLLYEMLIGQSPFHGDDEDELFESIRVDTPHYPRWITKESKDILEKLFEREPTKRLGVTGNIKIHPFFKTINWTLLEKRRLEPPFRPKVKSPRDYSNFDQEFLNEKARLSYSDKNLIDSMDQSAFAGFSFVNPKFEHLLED

[7] = molecular target: T3, cGMP-dependent protein kinase 1 (Homo sapiens) (UniProt Q13976); assay: Inhibition of human full length PKG-1beta expressed in baculovirus assessed as substrate phosphorylation using fluorescence-labelled peptides as substrate at 70 uM after 90 mins by microfluidic peptide phosphorylation assay
T3 sequence (whole entry): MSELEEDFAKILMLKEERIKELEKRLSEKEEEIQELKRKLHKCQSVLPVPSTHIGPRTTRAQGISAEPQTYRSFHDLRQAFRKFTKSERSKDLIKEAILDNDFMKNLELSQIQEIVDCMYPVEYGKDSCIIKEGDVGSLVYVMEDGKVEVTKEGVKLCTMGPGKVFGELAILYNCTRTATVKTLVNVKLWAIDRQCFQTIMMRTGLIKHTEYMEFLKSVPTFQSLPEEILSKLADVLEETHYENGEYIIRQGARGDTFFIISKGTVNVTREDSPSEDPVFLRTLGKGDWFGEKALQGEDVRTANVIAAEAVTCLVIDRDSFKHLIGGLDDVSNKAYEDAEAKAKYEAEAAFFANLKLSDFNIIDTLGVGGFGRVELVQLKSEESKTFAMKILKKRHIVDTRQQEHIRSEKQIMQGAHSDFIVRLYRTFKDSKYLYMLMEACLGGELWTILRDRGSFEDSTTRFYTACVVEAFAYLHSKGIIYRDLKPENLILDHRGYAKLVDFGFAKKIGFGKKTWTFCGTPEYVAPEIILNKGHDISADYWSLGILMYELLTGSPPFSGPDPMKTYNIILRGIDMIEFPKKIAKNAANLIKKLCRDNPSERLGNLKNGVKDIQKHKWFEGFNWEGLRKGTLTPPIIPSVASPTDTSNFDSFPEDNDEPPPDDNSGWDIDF

[8] = molecular target: MAP kinase-activated protein kinase 3 (Homo sapiens) (UniProt Q16644); assay: Inhibition of human full length MAPKAPK3 expressed in Escherichia coli cell assessed as substrate phosphorylation using fluorescence-labelled peptides as substrate at 70 uM after 90 mins by microfluidic peptide phosphorylation assay
[9] = molecular target: Receptor-type tyrosine-protein kinase FLT3 (Homo sapiens) (UniProt P36888); assay: Inhibition of human FLT3 catalytic domain expressed in baculovirus assessed as substrate phosphorylation using fluorescence-labelled peptides as substrate at 2 uM after 90 mins by microfluidic peptide phosphorylation assay
Receptor-type tyrosine-protein kinase FLT3 (Homo sapiens), sequence (P36888 whole entry, the tested form may be a part): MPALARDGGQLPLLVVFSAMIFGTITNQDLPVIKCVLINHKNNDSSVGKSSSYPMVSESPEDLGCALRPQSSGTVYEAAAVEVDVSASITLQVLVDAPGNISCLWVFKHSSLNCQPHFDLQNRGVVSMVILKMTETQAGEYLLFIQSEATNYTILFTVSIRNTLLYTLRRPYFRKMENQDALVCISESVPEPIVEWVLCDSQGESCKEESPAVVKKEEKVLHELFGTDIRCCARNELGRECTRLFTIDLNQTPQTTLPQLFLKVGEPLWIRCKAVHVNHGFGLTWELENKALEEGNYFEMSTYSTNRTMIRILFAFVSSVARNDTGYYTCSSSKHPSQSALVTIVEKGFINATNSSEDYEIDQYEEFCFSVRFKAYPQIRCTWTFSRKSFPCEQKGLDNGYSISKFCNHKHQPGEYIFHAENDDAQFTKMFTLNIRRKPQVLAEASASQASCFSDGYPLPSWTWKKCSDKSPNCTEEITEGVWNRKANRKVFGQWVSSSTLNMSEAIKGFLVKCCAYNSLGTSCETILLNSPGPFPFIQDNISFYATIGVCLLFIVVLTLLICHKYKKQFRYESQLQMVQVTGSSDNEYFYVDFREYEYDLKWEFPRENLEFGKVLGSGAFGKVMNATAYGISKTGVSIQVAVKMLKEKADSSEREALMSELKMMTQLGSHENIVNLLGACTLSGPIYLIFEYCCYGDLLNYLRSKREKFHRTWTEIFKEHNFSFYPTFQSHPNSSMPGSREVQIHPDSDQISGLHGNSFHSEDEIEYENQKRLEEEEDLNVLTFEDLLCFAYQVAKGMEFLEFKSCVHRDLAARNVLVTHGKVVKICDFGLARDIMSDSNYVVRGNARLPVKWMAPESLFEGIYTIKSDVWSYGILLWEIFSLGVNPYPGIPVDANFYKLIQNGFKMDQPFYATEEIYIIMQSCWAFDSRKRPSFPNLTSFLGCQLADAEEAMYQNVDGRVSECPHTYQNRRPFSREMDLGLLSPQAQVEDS

[10] = molecular target: T2, Serine/threonine-protein kinase BRSK1 (Homo sapiens); assay: Inhibition of human full length BRSK1 expressed in baculovirus assessed as substrate phosphorylation using fluorescence-labelled peptides as substrate at 2 uM after 90 mins by microfluidic peptide phosphorylation assay

## NC1(Cc2ccc(Cl)cc2)CCN(c2ncnc3[nH]ccc23)CC1
[1]
  inhibition: 7%
Homo sapiens
  inhibition: 0%
[2]
  inhibition: 0%

## Clc1ccc(C2(c3ccc(-c4ncnc5[nH]cnc45)cc3)CCNCC2)cc1
[3]
  inhibition: 5%

## C[C@H](CN(C)C)Oc1nc(Nc2cc3cccc(Cl)c3cn2)cnc1C#N
[4]
  inhibition: 16.5%

## CNCc1ccc(-c2ncnc3[nH]cnc23)cc1
[5]
  inhibition: 27.5%
[6]
  inhibition: 60%
[7]
  inhibition: 95.5%
[8]
  inhibition: 1.5%

## NC1CCN(c2ncnc3[nH]ccc23)CC1
[9]
  inhibition: 0%
[10]
  inhibition: 14.5%
